What was measured:
[1] = system: HCT-116; assay: cells; details: Homo sapiens, HCT-116, 72 h
[2] = system: CCRF-CEM; assay: Cytotoxicity against human CEM cells after 72 hrs by MTT assay; assay type: functional, cell-based
[3] = system: MDA-MB-435; assay: cells; details: Homo sapiens, MDA-MB-435, 72 h
Description: Cytotoxicity against human MDA-MB-435 cells after 72 hrs by MTT assay

[4] = molecular target: Tubulin (Sus scrofa, UniProt P02554+P02550); assay: Inhibition of porcine brain tubulin assembly measured every 1 min for 60 mins by turbidimetric analysis

SMILES: COc1ccc2c(c1)CCC(=O)/C2=C/c1ccc(C)cc1
- IC50 [1]: 2.56 µM
- IC50 [2]: 2.31 µM
- IC50 [3]: 1.33 µM

SMILES: COc1ccc2c(c1)CCC(=O)/C2=C/c1cccc(O)c1
- IC50 [1]: 1.76 µM
- IC50 [2]: 1.46 µM
- IC50 [3]: 0.76 µM

SMILES: COc1cc(/C=C2/C(=O)CCc3c(OC)cccc32)ccc1O
- IC50 [1]: > 10 µM
- IC50 [2]: > 10 µM
- IC50 [3]: 8.63 µM

SMILES: COc1ccc2c(c1)/C(=C\c1ccccc1)C(=O)CC2
- IC50 [1]: 3.21 µM
- IC50 [2]: 1.53 µM
- IC50 [3]: 1.45 µM

SMILES: COc1cccc2c1CCC(=O)/C2=C/c1c(Cl)cccc1Cl
- IC50 [1]: 6.71 µM
- IC50 [2]: 8.64 µM
- IC50 [3]: > 10 µM

SMILES: COc1ccc(/C=C2/C(=O)CCc3cc(OC)ccc32)cc1
- IC50 [4]: 25.82 µM
- IC50 [1]: 0.86 µM
- IC50 [2]: 0.11 µM
- IC50 [3]: 0.21 µM

SMILES: COc1cccc2c1CCC(=O)/C2=C/c1ccc(Cl)c(Cl)c1
- IC50 [1]: > 10 µM
- IC50 [2]: > 10 µM
- IC50 [3]: > 10 µM

SMILES: COc1ccc2c(c1)/C(=C\c1ccc(N(C)C)cc1)C(=O)CC2
- IC50 [1]: > 10 µM
- IC50 [2]: > 10 µM
- IC50 [3]: > 10 µM

SMILES: COc1ccc2c(c1)CCC(=O)/C2=C/c1ccc(OC)c(O)c1
- IC50 [1]: 0.32 µM
- IC50 [2]: 0.12 µM
- IC50 [3]: 0.63 µM

SMILES: COc1ccc2c(c1)/C(=C\c1cccc(O)c1)C(=O)CC2
- IC50 [1]: 4.91 µM
- IC50 [2]: 2.57 µM
- IC50 [3]: 2.07 µM

SMILES: COc1ccc2c(c1)/C(=C\c1ccc(Cl)cc1Cl)C(=O)CC2
- IC50 [1]: > 10 µM
- IC50 [2]: > 10 µM
- IC50 [3]: > 10 µM

SMILES: COc1ccc2c(c1)/C(=C\c1ccc([N+](=O)[O-])cc1)C(=O)CC2
- IC50 [1]: 8.95 µM
- IC50 [2]: > 10 µM
- IC50 [3]: > 10 µM

SMILES: COc1cccc2c1CCC(=O)/C2=C/c1ccc(OC)c(OC)c1OC
- IC50 [1]: > 10 µM
- IC50 [2]: > 10 µM
- IC50 [3]: > 10 µM

SMILES: COc1cc(/C=C2/C(=O)CCc3cc(OC)ccc32)cc(OC)c1
- IC50 [4]: 6.88 µM
- IC50 [1]: 0.15 µM
- IC50 [2]: 0.078 µM
- IC50 [3]: 0.39 µM

SMILES: COc1ccc2c(c1)/C(=C\c1cc(OC)c(OC)c(OC)c1)C(=O)CC2
- IC50 [4]: 9.63 µM
- IC50 [1]: 0.51 µM
- IC50 [2]: 0.001 µM
- IC50 [3]: 0.34 µM

SMILES: COc1ccc2c(c1)/C(=C\c1ccc(C)cc1)C(=O)CC2
- IC50 [1]: 3.68 µM
- IC50 [2]: 3.77 µM
- IC50 [3]: 2.62 µM

SMILES: COc1ccc2c(c1)/C(=C\c1ccc(Br)cc1)C(=O)CC2
- IC50 [1]: > 10 µM
- IC50 [2]: > 10 µM
- IC50 [3]: > 10 µM

SMILES: COc1cccc2c1CCC(=O)/C2=C/c1ccccc1
- IC50 [1]: > 10 µM
- IC50 [2]: 8.69 µM
- IC50 [3]: 6.31 µM

SMILES: COc1ccc2c(c1)/C(=C\c1ccc(Cl)cc1)C(=O)CC2
- IC50 [1]: 4.69 µM
- IC50 [2]: > 10 µM
- IC50 [3]: 5.83 µM

SMILES: COc1ccc2c(c1)CCC(=O)/C2=C/c1ccc([N+](=O)[O-])cc1
- IC50 [1]: 2.23 µM
- IC50 [2]: 0.68 µM
- IC50 [3]: 0.54 µM

SMILES: COc1cccc2c1CCC(=O)/C2=C/c1ccc(C(C)(C)C)cc1
- IC50 [1]: > 10 µM
- IC50 [2]: > 10 µM
- IC50 [3]: > 10 µM

SMILES: COc1ccc2c(c1)/C(=C\c1ccc(Cl)c(Cl)c1)C(=O)CC2
- IC50 [1]: > 10 µM
- IC50 [2]: > 10 µM
- IC50 [3]: > 10 µM

SMILES: COc1ccc2c(c1)CCC(=O)/C2=C/c1ccc(Cl)c(Cl)c1
- IC50 [1]: 2.52 µM
- IC50 [2]: 1.86 µM
- IC50 [3]: 1.23 µM

SMILES: COc1ccc2c(c1)/C(=C\c1ccc(OC)c(O)c1)C(=O)CC2
- IC50 [1]: 1.37 µM
- IC50 [2]: 1.42 µM
- IC50 [3]: 1.05 µM

SMILES: COc1ccc2c(c1)CCC(=O)/C2=C/c1ccc(N(C)C)cc1
- IC50 [1]: 8.73 µM
- IC50 [2]: 8.03 µM
- IC50 [3]: 5.68 µM

SMILES: COc1ccc2c(c1)CCC(=O)/C2=C/c1ccc(C(C)(C)C)cc1
- IC50 [1]: 6.7 µM
- IC50 [2]: 3.1 µM
- IC50 [3]: 1.77 µM

SMILES: COc1ccc(/C=C2/C(=O)CCc3c(OC)cccc32)cc1OC
- IC50 [1]: 2.12 µM
- IC50 [2]: 1.35 µM
- IC50 [3]: 1.54 µM

SMILES: COc1cccc2c1CCC(=O)/C2=C/c1ccc(C(F)(F)F)cc1
- IC50 [1]: 5.38 µM
- IC50 [2]: > 10 µM
- IC50 [3]: 5.89 µM

SMILES: COc1ccc(/C=C2/C(=O)CCc3ccc(OC)cc32)cc1
- IC50 [1]: 1.91 µM
- IC50 [2]: 0.89 µM
- IC50 [3]: 0.73 µM

SMILES: COc1cccc2c1CCC(=O)/C2=C/c1ccccc1Cl
- IC50 [1]: 5.77 µM
- IC50 [2]: 8.91 µM
- IC50 [3]: 3.35 µM

SMILES: COc1ccc2c(c1)CCC(=O)/C2=C/c1ccc(O)cc1
- IC50 [1]: 1.13 µM
- IC50 [2]: 0.96 µM
- IC50 [3]: 0.45 µM

SMILES: COc1ccc(/C=C2/C(=O)CCc3c(OC)cccc32)cc1
- IC50 [1]: 3.58 µM
- IC50 [2]: 2.64 µM
- IC50 [3]: 1.37 µM

SMILES: COc1cccc2c1CCC(=O)/C2=C/c1ccc(Br)cc1
- IC50 [1]: 6.8 µM
- IC50 [2]: > 10 µM
- IC50 [3]: 7.59 µM

SMILES: COc1cccc2c1CCC(=O)/C2=C/c1ccc(N(C)C)cc1
- IC50 [1]: 9.78 µM
- IC50 [2]: > 10 µM
- IC50 [3]: 7.76 µM

SMILES: COc1ccc2c(c1)/C(=C\c1ccc(OC)c(OC)c1)C(=O)CC2
- IC50 [1]: 1.32 µM
- IC50 [2]: 0.27 µM
- IC50 [3]: 0.89 µM

SMILES: COc1cccc2c1CCC(=O)/C2=C/c1ccc([N+](=O)[O-])cc1
- IC50 [1]: 8.68 µM
- IC50 [2]: > 10 µM
- IC50 [3]: 7.68 µM

SMILES: COc1cccc2c1CCC(=O)/C2=C/c1ccc(Cl)cc1
- IC50 [1]: 7.52 µM
- IC50 [2]: 8.53 µM
- IC50 [3]: 6.86 µM

SMILES: COc1cccc2c1CCC(=O)/C2=C/c1ccc(O)cc1
- IC50 [1]: 2.69 µM
- IC50 [2]: 4.32 µM
- IC50 [3]: 1.54 µM

SMILES: COc1ccc2c(c1)CCC(=O)/C2=C/c1ccc(Cl)cc1
- IC50 [1]: 1.25 µM
- IC50 [2]: 0.95 µM
- IC50 [3]: 0.89 µM

SMILES: COc1ccc2c(c1)CCC(=O)/C2=C/c1ccccc1Cl
- IC50 [1]: 1.7 µM
- IC50 [2]: 0.58 µM
- IC50 [3]: 0.46 µM

SMILES: COc1ccc(/C=C2/C(=O)CCc3c(OC)cccc32)cc1O
- IC50 [1]: > 10 µM
- IC50 [2]: 6.31 µM
- IC50 [3]: 5.62 µM

SMILES: COc1cc(/C=C2/C(=O)CCc3c(OC)cccc32)cc(OC)c1
- IC50 [1]: 5.67 µM
- IC50 [2]: > 10 µM
- IC50 [3]: 3.95 µM

SMILES: COc1ccc2c(c1)/C(=C\c1ccc(OC)c(OC)c1OC)C(=O)CC2
- IC50 [1]: 2.68 µM
- IC50 [2]: 4.21 µM
- IC50 [3]: 1.35 µM

SMILES: COc1ccc2c(c1)CCC(=O)/C2=C/c1ccc(C(F)(F)F)cc1
- IC50 [1]: 2.32 µM
- IC50 [2]: 1.21 µM
- IC50 [3]: 0.75 µM

SMILES: COc1ccc2c(c1)/C(=C\c1ccc(O)c(OC)c1)C(=O)CC2
- IC50 [1]: > 10 µM
- IC50 [2]: 6.93 µM
- IC50 [3]: 4.35 µM

SMILES: COc1ccc2c(c1)/C(=C\c1ccc(C(C)(C)C)cc1)C(=O)CC2
- IC50 [1]: > 10 µM
- IC50 [2]: > 10 µM
- IC50 [3]: > 10 µM

SMILES: COc1ccc2c(c1)CCC(=O)/C2=C/c1ccccc1
- IC50 [1]: 0.47 µM
- IC50 [2]: 0.92 µM
- IC50 [3]: 0.94 µM

SMILES: COc1ccc2c(c1)CCC(=O)/C2=C/c1ccc(Cl)cc1Cl
- IC50 [1]: 2.15 µM
- IC50 [2]: 1.2 µM
- IC50 [3]: 0.33 µM

SMILES: COc1cccc2c1CCC(=O)/C2=C/c1ccc(C)cc1
- IC50 [1]: > 10 µM
- IC50 [2]: > 10 µM
- IC50 [3]: > 10 µM

SMILES: COc1cccc2c1CCC(=O)/C2=C/c1ccc(Cl)cc1Cl
- IC50 [1]: 7.14 µM
- IC50 [2]: > 10 µM
- IC50 [3]: 9.32 µM

SMILES: COc1ccc2c(c1)/C(=C\c1ccc(C(F)(F)F)cc1)C(=O)CC2
- IC50 [1]: 6.16 µM
- IC50 [2]: > 10 µM
- IC50 [3]: 6.45 µM

SMILES: COc1ccc2c(c1)CCC(=O)/C2=C/c1ccc(Br)cc1
- IC50 [1]: 2.94 µM
- IC50 [2]: 1.52 µM
- IC50 [3]: 1.12 µM

SMILES: COc1ccc2c(c1)CCC(=O)/C2=C/c1ccc(O)c(OC)c1
- IC50 [1]: 7.5 µM
- IC50 [2]: 5.81 µM
- IC50 [3]: 4.51 µM

SMILES: COc1ccc2c(c1)/C(=C\c1ccccc1Cl)C(=O)CC2
- IC50 [1]: 2.35 µM
- IC50 [2]: 5.26 µM
- IC50 [3]: 1.68 µM

SMILES: COc1cc(/C=C2/C(=O)CCc3ccc(OC)cc32)cc(OC)c1
- IC50 [1]: 0.5 µM
- IC50 [2]: 0.26 µM
- IC50 [3]: 0.85 µM

SMILES: COc1ccc2c(c1)/C(=C\c1ccc(O)cc1)C(=O)CC2
- IC50 [1]: 3.24 µM
- IC50 [2]: 1.05 µM
- IC50 [3]: 0.86 µM
